One assay has as its system OVCAR-3 (Ovarian). Kind of assay: NCI human tumor cell line growth inhibition, OVCAR-3. It is filed as cell-based. The following applies: Ovarian OVCAR-3, 48 hours. On the procedure: (§1) The only difference is historical usage.
(§2) Percent Growths are calculated for each dose.
(§3) This is the "baseline count", or "Tzero reading".

A further assay deals with SF-295 (CNS). Kind of assay: NCI human tumor cell line growth inhibition, SF-295. Type of assay: cell-based. The note with it: CNS SF-295, 48 hours. On the procedure: as §1, §2, §3
A further assay relates to NCI-H460 (Lung-NSC). In words: NCI human tumor cell line growth inhibition, NCI-H460. It is filed as cell-based. The following applies: Lung-NSC NCI-H460, 48 hours. As to the method: as §1, §2, §3
For a further assay, the system named is KM20L2 (Colon). Kind of assay: NCI human tumor cell line growth inhibition, KM20L2. Type of assay: cell-based. The note with it: Colon KM20L2, 48 hours. As to the method:
as §1, §2, §3

The subject of a further assay is SK-MEL-5 (Melanoma). Kind of assay: NCI human tumor cell line growth inhibition, SK-MEL-5. It is filed as cell-based. The note with it: Melanoma SK-MEL-5, 48 hours. As to the method:
as §1, §2, §3

For the next assay, the system named is PS-388 (Mouse Leukemia). In words: P-388 mouse leukemia cell growth inhibition. The following applies: Mouse Leukemia PS-388. Type of assay: cell-based. On the procedure: as §1, §2, §3
The next assay deals with A498 (Renal). The note with it: Renal A498, 48 hours.

A value given as a limit tells only on which side of the number the result lay.

This note sets out measurements from patent US5663149A, “Human cancer inhibitory pentapeptide heterocyclic and halophenyl amides” (priority 1994, dated 1997).

Description for A498 (Renal): The following measures are used to express drug activity by giving the drug dose which reduces cell growth to a specified percentage of growth:
There is no mathematical difference between ED50 and GI50, which are both calculated using the same formula. The only difference is historical usage.
TGI, (Total Growth Inhibition), is the drug dose needed to yield zero percent growth, i.e., just as many cells at the end of the experiment as were present in the beginning. Whether just as many cells were killed as were produced (steady state), or no growth occurred (total inhibition), cannot be distinguished.
Each drug is tested at five (5) doses: 100-10-1-0.1-0.01 μg/ml. Percent Growths are calculated for each dose. […] The log of the dose is used during the regression computation.
At the start of an experiment, cells from the in vitro cell cultures are inoculated into the appropriate tubes or microtiter plates. One set of control tubes/plates is immediately counted to determine the number of cells at the start of the experiment. This is the "baseline count", or "Tzero reading". At the end of the experiment (48 hours later) a second set of control tubes/plates is analyzed to determine the "Control Growth" value. The growth (or death) of cells relative to the initial quantity of cells is used to define the "Percent of Growth".

Usually TGI stands for the concentration at which net growth stops. Read a high TGI as lower sensitivity of the cells. Take “L-Dolavalyl-L-Valyl-N-Methyl-(S,S,R)-Dolaisoleuinyl-(S,R,R)-Dolaproinyl-L- Methionine N-1-(2-p-Chlorophenylethyl) Amide [9i]”: the GI-50 was determined as 0.000017 µg/mL in the assay on OVCAR-3 (Ovarian); 0.000026 µg/mL with SF-295 (CNS); 0.0000032 µg/mL in the assay with NCI-H460 (Lung-NSC); 0.0000048 µg/mL with KM20L2 (Colon); 0.0000012 µg/mL in the assay with SK-MEL-5 (Melanoma); 0.000067 µg/mL in the assay on A498 (Renal). The LC-50 in the assay on OVCAR-3 (Ovarian), in the assay on SF-295 (CNS), with NCI-H460 (Lung-NSC), in the assay on KM20L2 (Colon), in the assay on SK-MEL-5 (Melanoma) and with A498 (Renal) was more than 0.001 µg/mL in each case. Moreover, the TGI was 0.072 ng/mL in the assay on OVCAR-3 (Ovarian); more than 1 ng/mL with SF-295 (CNS); 0.011 ng/mL with NCI-H460 (Lung-NSC); 0.13 ng/mL in the assay with KM20L2 (Colon); 0.43 ng/mL in the assay on SK-MEL-5 (Melanoma); more than 1 ng/mL in the assay with A498 (Renal). In the assay on PS-388 (Mouse Leukemia), this substance had an ED-50 of 0.000111 µg/mL.
On to “L-Dolavalyl-L-Valyl-N-Methyl-(S,S,R)-Dolaisoleuinyl-(S,R,R)-Dolaproinyl-L- Proline N-2-Benzothiazole Amide [9n]”, for which the GI-50 came to 0.000027 µg/mL with OVCAR-3 (Ovarian); 0.000035 µg/mL with SF-295 (CNS); 0.000031 µg/mL with NCI-H460 (Lung-NSC); 0.000029 µg/mL in the assay with KM20L2 (Colon); 0.0000098 µg/mL in the assay on SK-MEL-5 (Melanoma); 0.000081 µg/mL in the assay on A498 (Renal). For the same substance, the total growth inhibition concentration (TGI) is 0.079 ng/mL with OVCAR-3 (Ovarian); more than 0.1 ng/mL in the assay on SF-295 (CNS); more than 0.1 ng/mL in the assay with NCI-H460 (Lung-NSC); more than 0.1 ng/mL in the assay on KM20L2 (Colon); more than 0.1 ng/mL with SK-MEL-5 (Melanoma); more than 0.1 ng/mL in the assay on A498 (Renal). The substance also yielded an ED-50 with PS-388 (Mouse Leukemia) of 0.00083 µg/mL.
With “L-Dolavalyl-L-Valyl-N-Methyl-(S,S,R)-Dolaisoleuinyl-(S,R,R)-Dolaproinyl-L- Isoleucine N-3-Quinoline Amide [9s]”, the GI-50 in the assay with OVCAR-3 (Ovarian) is 0.000018 µg/mL; with SF-295 (CNS), 0.000028 µg/mL; in the assay on NCI-H460 (Lung-NSC) it was 0.000027 µg/mL; in the assay with KM20L2 (Colon), 0.00003 µg/mL; with SK-MEL-5 (Melanoma), 0.0000039 µg/mL; in the assay on A498 (Renal) it was 0.000065 µg/mL. Besides, the LC-50 with OVCAR-3 (Ovarian), in the assay on SF-295 (CNS), in the assay on NCI-H460 (Lung-NSC), in the assay with KM20L2 (Colon), with SK-MEL-5 (Melanoma) and with A498 (Renal) was more than 0.0001 µg/mL in each case. Also, the TGI in the assay on OVCAR-3 (Ovarian) was 0.079 ng/mL; in the assay on SF-295 (CNS) it was more than 0.1 ng/mL; in the assay with NCI-H460 (Lung-NSC) it was more than 0.1 ng/mL; in the assay on KM20L2 (Colon), more than 0.1 ng/mL; with SK-MEL-5 (Melanoma) it was more than 0.1 ng/mL; in the assay with A498 (Renal), more than 0.1 ng/mL. This substance gave an ED-50 in the assay on PS-388 (Mouse Leukemia) of 0.00352 µg/mL.
Turning to “L-Dolavalyl-L-Valyl-N-Methyl-(S,S,R)-Dolaisoleuinyl-(S,R,R)-Dolaproinyl-L- Phenylalanine N-2-(6-Fluoro)benzothiazole Amide [9j]”, the GI-50 in the assay with OVCAR-3 (Ovarian) was determined as 0.0000031 µg/mL; with SF-295 (CNS) it was 0.0000044 µg/mL; in the assay on NCI-H460 (Lung-NSC), 0.0000041 µg/mL; in the assay with KM20L2 (Colon), 0.0000033 µg/mL; in the assay with SK-MEL-5 (Melanoma) it was 0.0000013 µg/mL; with A498 (Renal), 0.000016 µg/mL. In addition, the TGI is 0.012 ng/mL in the assay on OVCAR-3 (Ovarian); more than 0.1 ng/mL in the assay with SF-295 (CNS); 0.036 ng/mL in the assay with NCI-H460 (Lung-NSC); 0.013 ng/mL in the assay with KM20L2 (Colon); more than 0.1 ng/mL in the assay on SK-MEL-5 (Melanoma); more than 0.1 ng/mL with A498 (Renal). Also, the ED-50 in the assay with PS-388 (Mouse Leukemia) was determined as 0.000227 µg/mL.
Consider “L-Dolavalyl-L-Valyl-N-Methyl-(S,S,R)-Dolaisoleuinyl-(S,R,R)-Dolaproinyl-L- Methionine N-2-Benzothiazole Amide [9m]”, for which the GI-50 was 0.0000016 µg/mL with OVCAR-3 (Ovarian); 0.000022 µg/mL in the assay on SF-295 (CNS); 0.000011 µg/mL in the assay on NCI-H460 (Lung-NSC); 0.0000041 µg/mL in the assay on KM20L2 (Colon); 0.0000024 µg/mL in the assay on SK-MEL-5 (Melanoma); 0.000016 µg/mL in the assay with A498 (Renal). Also, the TGI with OVCAR-3 (Ovarian) was 0.011 ng/mL; in the assay with SF-295 (CNS) it was more than 0.1 ng/mL; in the assay with NCI-H460 (Lung-NSC), 0.08 ng/mL; with KM20L2 (Colon) it was more than 0.1 ng/mL; in the assay on SK-MEL-5 (Melanoma), more than 0.1 ng/mL; in the assay with A498 (Renal), more than 0.1 ng/mL. In addition, the ED-50 with PS-388 (Mouse Leukemia) came out at 0.000243 µg/mL.
On to “L-Dolavalyl-L-Valyl-N-Methyl-(S,S,R)-Dolaisoleuinyl-(S,R,R)-Dolaproinyl-L- Methionine N-3-Quinoline Amide [9p]”, for which the GI-50 in the assay with OVCAR-3 (Ovarian) worked out at 0.00000032 µg/mL; with SF-295 (CNS), 0.000004 µg/mL; with NCI-H460 (Lung-NSC) it was 0.0000031 µg/mL; with KM20L2 (Colon) it was 0.00000065 µg/mL; in the assay with SK-MEL-5 (Melanoma) it was 0.00000038 µg/mL; in the assay with A498 (Renal), 0.000008 µg/mL. In addition, the LC-50 in the assay with OVCAR-3 (Ovarian), in the assay on SF-295 (CNS), in the assay with NCI-H460 (Lung-NSC), with KM20L2 (Colon), in the assay with SK-MEL-5 (Melanoma) and in the assay on A498 (Renal) was more than 0.0001 µg/mL each time. The TGI was 0.01 ng/mL in the assay with OVCAR-3 (Ovarian); more than 0.1 ng/mL in the assay on SF-295 (CNS); 0.017 ng/mL in the assay with NCI-H460 (Lung-NSC); more than 0.1 ng/mL with KM20L2 (Colon); more than 0.1 ng/mL in the assay on SK-MEL-5 (Melanoma); more than 0.1 ng/mL in the assay on A498 (Renal). Also, the ED-50 in the assay on PS-388 (Mouse Leukemia) was found to be 0.000356 µg/mL.
In the case of “L-Dolavalyl-L-Valyl-N-Methyl-(S,S,R)-Dolaisoleuinyl-(S,R,R)-Dolaproinyl-L- Methionine N-2,5-Dichlorophenyl Amide [9g]”, the GI-50 in the assay on OVCAR-3 (Ovarian) was 0.00014 µg/mL; in the assay on SF-295 (CNS), 0.00013 µg/mL; with NCI-H460 (Lung-NSC), 0.00017 µg/mL; in the assay on KM20L2 (Colon), 0.00015 µg/mL; in the assay with SK-MEL-5 (Melanoma), 0.000062 µg/mL; with A498 (Renal) it was 0.00036 µg/mL. Besides, the LC-50 in the assay with OVCAR-3 (Ovarian), in the assay with SF-295 (CNS), in the assay on NCI-H460 (Lung-NSC), in the assay on KM20L2 (Colon), with SK-MEL-5 (Melanoma) and in the assay with A498 (Renal) was more than 0.001 µg/mL throughout. The TGI in the assay on OVCAR-3 (Ovarian) was 0.51 ng/mL; with SF-295 (CNS) it was more than 1 ng/mL; in the assay on NCI-H460 (Lung-NSC), 0.66 ng/mL; in the assay on KM20L2 (Colon), 0.61 ng/mL; with SK-MEL-5 (Melanoma) it was 0.65 ng/mL; with A498 (Renal), more than 1 ng/mL. The substance further yielded an ED-50 in the assay on PS-388 (Mouse Leukemia) of 0.000125 µg/mL.
Regarding “L-Dolavalyl-L-Valyl-N-Methyl-(S,S,R)-Dolaisoleuinyl-(S,R,R)-Dolaproinyl-L- (p-Chloro)phenylalanine N-2-(6-Chloro)benzothiazole Amide [9l]”, the GI-50 in the assay with OVCAR-3 (Ovarian) worked out at 0.000018 µg/mL; in the assay with SF-295 (CNS), 0.000036 µg/mL; with NCI-H460 (Lung-NSC), 0.000043 µg/mL; in the assay with KM20L2 (Colon), 0.000031 µg/mL; in the assay with SK-MEL-5 (Melanoma) it was 0.0000061 µg/mL; in the assay on A498 (Renal), 0.000059 µg/mL. The TGI in the assay with OVCAR-3 (Ovarian) is 0.071 ng/mL; in the assay on SF-295 (CNS), more than 0.1 ng/mL; with NCI-H460 (Lung-NSC) it was more than 0.1 ng/mL; in the assay on KM20L2 (Colon) it was 0.096 ng/mL; in the assay with SK-MEL-5 (Melanoma) it was more than 0.1 ng/mL; in the assay on A498 (Renal), more than 0.1 ng/mL. The same substance returned an ED-50 in the assay on PS-388 (Mouse Leukemia) of 0.000458 µg/mL.
Take “L-Dolavalyl-L-Valyl-N-Methyl-(S,S,R)-Dolaisoleuinyl-(S,R,R)-Dolaproinyl-L- Methionine N-2-Pyridyl Amide [9o]”: the GI-50 with OVCAR-3 (Ovarian) was found to be 0.000032 µg/mL; with SF-295 (CNS), 0.00016 µg/mL; in the assay on NCI-H460 (Lung-NSC) it was 0.00012 µg/mL; with KM20L2 (Colon) it was 0.000033 µg/mL; in the assay on SK-MEL-5 (Melanoma) it was 0.000016 µg/mL; in the assay on A498 (Renal), 0.00023 µg/mL. The LC-50 in the assay on OVCAR-3 (Ovarian), in the assay on SF-295 (CNS), in the assay on NCI-H460 (Lung-NSC), with KM20L2 (Colon), in the assay with SK-MEL-5 (Melanoma) and in the assay with A498 (Renal) was more than 0.001 µg/mL in each case. In addition, the concentration for total growth inhibition (TGI) in the assay on OVCAR-3 (Ovarian) is 0.22 ng/mL; in the assay with SF-295 (CNS), more than 1 ng/mL; in the assay with NCI-H460 (Lung-NSC) it was 0.59 ng/mL; with KM20L2 (Colon), 0.31 ng/mL; in the assay with SK-MEL-5 (Melanoma) it was 0.6 ng/mL; in the assay on A498 (Renal), more than 1 ng/mL. In the assay on PS-388 (Mouse Leukemia), this substance gave an ED-50 of 0.000262 µg/mL.
